Measured values published in US20220370416A1, “COMPOUNDS AND METHODS FOR TARGETED DEGRADATION OF KRAS” (Arvinas Operations, Inc., priority 2020, published 2022).

Columns and labels:
[1] = tested on: pErk; conditions: MIA PaCa-2, 2.5 μM LC-2, 6 and 24 hours
Procedure: Between 2.5×10^5 and 6.0×10^5 cells were seeded into 6-well plates (Corning; cat. no. 353046). The next day, media was removed and cells were treated with 2.5 μM LC-2 for 1, 2, 4, 8, 12, or 24 hours. […] For 24-hour time course experiments, cells were treated at the indicated times and concurrently lysed in RIPA buffer supplemented as described previously. For longer time course experiments and time courses in which cells were treated with LC-2 or LC-2 Epimer, cells were concurrently treated with either compound, then lysed by scraping in RIPA buffer at the indicated time points.
Cell lysates were clarified at 21000×g for 15 mins at 4° C. Protein levels were quantified using a 50:1 mixture of bicinchoninic acid solution (Millipore Sigma; cat. no. B9643) and 4% (w/v) copper(II) sulfate solution (Millipore Sigma; cat. no. C2284) incubated at 37° C. for 30 mins. Absorbance values at 560 nm were read on an EnVision 2101 Multilabel Reader (PerkinElmer). Proteins were separated using 26 well Criterion TGX precast 4-15% (cat. no. 5671085) or 8-16% (cat. no. 5671105) gradient midi gels. After separation, proteins were transferred to nitrocellulose or PVDF membranes at 76 V for 2 hours at 4° C. Blots were then blocked in 5% milk in tris-buffered saline with Tween-20 (TBST; 20 mM Tris, 150 mM NaCl, 0.02% Tween-20). […]

[2] = tested on: pErk; assay: Erk signaling (pErk) during a 24 hour treatment in SW1573 cells; type: cell-based; conditions: 24 hour treatment time course (FIG. 11)
[3] = biological target: T1, KRAS^G13D (Homo sapiens, UniProt P01116, G13D); assay: KRAS degradation by immunoblot in HCT 116 cells (specificity); type: cell-based; conditions: up to 10 μM
T1 construct: endogenous in cells; host or cells: HCT116
Excerpt: MRTX is known to be selective for mutant KRAS^G12C over other KRAS mutants (Hallin et al. 2020). To explore the specificity of LC-2, KRAS degradation was examined in HCT 116 cells, which harbor a heterozygous KRAS^G13D mutation.
NCI-H2030 (CRL-5914), MIA PaCa-2 (CRL-1420), NCI-H23 (CRL-5800), NCI-H358 (CRL-5807), and HCT-116 (CCL-247) cells were obtained from ATCC, expanded immediately, and frozen down. Vials were thawed and used within 20 passages. SW1573 cells were a gift from Arvinas and were handled in the same manner. […]
(§1) Cell lysates were clarified at 21000×g for 15 mins at 4° C. Protein levels were quantified using a 50:1 mixture of bicinchoninic acid solution (Millipore Sigma; cat. no. B9643) and 4% (w/v) copper(II) sulfate solution (Millipore Sigma; cat. no. C2284) incubated at 37° C. for 30 mins. Absorbance values at 560 nm were read on an EnVision 2101 Multilabel Reader (PerkinElmer). […]
(§2) Band intensities were quantified using BioRad's Image Lab Software. Total KRAS levels were examined by quantifying levels of both conjugated KRAS^G12C and unbound KRAS (wt or mutant) using an analysis box that spanned the two bands. This same sized box was used to quantify unbound KRAS in DMSO treated samples to account for background, except for LC-2 Epimer in FIGS. 6A and 6B. […]

[4] = biological target: T2, KRAS^G12C (Homo sapiens, UniProt P01116, G12C); assay: KRAS^G12C degradation in homozygous MIA PaCa-2 cells; type: cell-based; design: endogenous in cells; host or cells: MIA PaCa-2; conditions: homozygous MIA PaCa-2 cells (FIG. 4B)
[5] = biological target: T2, KRAS^G12C; assay: KRAS^G12C degradation by immunoblot in NCI-H358 cells; type: cell-based; design: MRTX849-VHL bifunctional compounds engage and degrade endogenous KRAS^G12C in NCI-H2030 cells; endogenous in cells; host or cells: NCI-H2030, NCI-H358, MIA PaCa-2, SW1573, NCI-H23; conditions: NCI-H358, heterozygous KRAS^G12C
Procedure: NCI-H2030 (CRL-5914), MIA PaCa-2 (CRL-1420), NCI-H23 (CRL-5800), NCI-H358 (CRL-5807), and HCT-116 (CCL-247) cells were obtained from ATCC, expanded immediately, and frozen down. Vials were thawed and used within 20 passages. SW1573 cells were a gift from Arvinas and were handled in the same manner. NCI-H2030, NCI-H23, and NCI-H358 were cultured in RPMI (ATCC30-2001) supplemented with 10% FBS (Biological Industries; cat. no. S1480) and 1% Penicillin-Streptomycin (ThermoFisher; cat. no. 15140122). HCT-116 cells were maintained in high glucose DMEM (ThermoFisher; cat. no. 11965084) supplemented as above. […]
as §1, §2

[6] = tested on: pErk; conditions: NCI-H2030, 24 hour dose response
Procedure: The ability of LC-2 to modulate Erk signaling was investigated in NCI-H2030 and NCI-H23 cells during a 24 hour dose response.
NCI-H2030, NCI-H23, and NCI-H358 were cultured in RPMI (ATCC30-2001) supplemented with 10% FBS (Biological Industries; cat. no. S1480) and 1% Penicillin-Streptomycin (ThermoFisher; cat. no. 15140122). HCT-116 cells were maintained in high glucose DMEM (ThermoFisher; cat. no. 11965084) supplemented as above. […] DPBS (ThermoFisher; cat. no. 14190250) was used to wash cells and 0.25% Trypsin-EDTA (ThermoFisher; cat. no. 252000-056) was used to detach cells for passaging.
Cell lysates were clarified at 21000×g for 15 mins at 4° C. Protein levels were quantified using a 50:1 mixture of bicinchoninic acid solution (Millipore Sigma; cat. no. B9643) and 4% (w/v) copper(II) sulfate solution (Millipore Sigma; cat. no. C2284) incubated at 37° C. for 30 mins. Absorbance values at 560 nm were read on an EnVision 2101 Multilabel Reader (PerkinElmer). Proteins were separated using 26 well Criterion TGX precast 4-15% (cat. no. 5671085) or 8-16% (cat. no. 5671105) gradient midi gels. […]
Band intensities were quantified using BioRad's Image Lab Software. […] Data was analyzed by computing one-way ANOVAs or two-way ANOVAs (for grouped data) using multiple comparisons in which the mean of DMSO was compared to all treatment means using GraphPad Prism 7. […]

T2 sequence (P01116 1-188 isoform P01116-2 G12C): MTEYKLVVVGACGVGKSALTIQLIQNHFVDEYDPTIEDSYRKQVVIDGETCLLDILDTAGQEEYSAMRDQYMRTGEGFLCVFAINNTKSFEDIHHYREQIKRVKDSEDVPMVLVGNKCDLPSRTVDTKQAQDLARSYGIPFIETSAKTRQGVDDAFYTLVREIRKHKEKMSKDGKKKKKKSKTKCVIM
T1 sequence (P01116 1-188 isoform P01116-2 G13D): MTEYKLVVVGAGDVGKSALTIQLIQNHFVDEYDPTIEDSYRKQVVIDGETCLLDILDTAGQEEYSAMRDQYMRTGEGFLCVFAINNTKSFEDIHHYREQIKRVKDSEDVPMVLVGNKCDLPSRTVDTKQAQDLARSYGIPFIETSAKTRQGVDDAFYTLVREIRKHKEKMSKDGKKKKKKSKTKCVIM

Which results are given for `C=C(F)C(=O)N1CCN(c2nc(OC[C@@H]3CCCN3CCCOCCC(=O)N[C@H](C(=O)N3C[C@H](O)C[C@H]3C(=O)NCc3ccc(-c4scnc4C)cc3)C(C)(C)C)nc3c2CCN(c2cccc4cccc(Cl)c24)C3)C[C@@H]1CC#N` [LC-2, (2S,4R)-1-((S)-2-(3-(3-((S)-2-(((7-(8-chloronaphthalen-1-yl)-4-((S)-3-(cyanomethyl)-4-(2-fluoroacryloyl)piperazin-1-yl)-5,6,7,8-tetrahydropyrido[3,4-d]pyrimidin-2-yl)oxy)methyl)pyrrolidin-1-yl)propoxy)propanamido)-3,3-dimethylbutanoyl)-4-hydroxy-N-(4-(4-methylthiazol-5-yl)benzyl)pyrrolidine-2-carboxamide]?
pErk [1]: suppressed; pErk (Erk signaling) [2]: pErk is decreased throughout the time course; engagement or degradation of KRAS^G13D [3]: No engagement or degradation; induction of KRAS^G12C degradation [4]: induces KRAS^G12C; DC50 [5]: 520 ± 300 nM; Dmax [5]: > 40%; pErk signaling [6]: dose-dependent decrease in signaling; total Erk levels [6]: elevated in a dose-dependent manner
